# According to patent publication US11951095B2, “Non-hormonal compositions and methods for male contraception” (PHARMAJOR INTERNATIONAL, priority 2018, dated 2024):
# Counter-ions that a name gives are not always drawn.
# Assays:
# [1] = test system: sexually active men; conditions: in vivo; cited from earlier work
# [2] = test system: male subjects; experiment: Example 3: single administration contraceptive effect, semen analysis (IR formulation); assay type: in vivo, human
# Method: A study is undertaken to evaluate the effectiveness of the compositions of the present invention in the treatment of male subjects. The objective of the study is to determine whether oral intake of (R)-Silodosin formulation results in a contraceptive effect.
# A total of 7 subjects, aged 18 to 40 years were enrolled in an open-label study. An initial analysis of each subject's semen, collected via masturbation after 3 days of abstinence, is performed by microscopic examination of the fresh semen. Each subject receives one single dose of 12 mg immediate release (R)-Silodosin.
# A semen analysis of each subject is conducted 24 hours after the dosing.
# [3] = 4 mg twice a day; cited from earlier work
# [4] = test system: healthy volunteer men; conditions: in vivo; cited from earlier work
# [5] = test system: Healthy Volunteers; conditions: 4 mg twice a day for 3 days; cited from earlier work
# [6] = in vivo; cited from earlier work
# [7] = test system: participants; conditions: cited from earlier work
# [8] = test system: male subjects; conditions: in vivo; cited from earlier work
# [9] = cited from earlier work
# [10] = test system: prostatic smooth muscle; conditions: cited from earlier work
# [11] = cited from earlier work; remark: listed apart in the source
# [12] = test system: male; conditions: cited from earlier work
# [13] = test system: Healthy Volunteers; conditions: cited from earlier work
# [14] = single dose 12 mg, immediate release (IR) formulation, 24 h, N = 7
# [15] = traditional formulations, with food
compound,measurement,setting,value
"C[C@H](Cc1cc2c(c(C(N)=O)c1)N(CCCO)CC2)NCCOc1ccccc1OCC(F)(F)F [(R)-Silodosin, (−)-(R)-1-(3-hydroxypropyl)-5-[2-[[2-[2-(2,2,2-trifluoroethoxy)phenoxy]ethyl]amino]propyl]indoline-7-carboxamide]",erectile function,[1],decrease
same,time for which contraception is maintained,[2]; after a 12-mg single dose,up to 24 h
same,Aspermia (subjects with effect),[2]; [14],6/7
same,Azoospermia (subjects with effect),[2]; [14],1/7
same,"Total, aspermia or azoospermia (subjects with effect)",[2]; [14],7/7
same,ejaculatory disorder,[3],high incidence
same,quality of orgasm,[4],decrease
same,seminal emission,[5],complete lack of seminal emission
same,sexual desire,[6],decrease
same,spermatozoa in the semen and post-analysis urine,"[7]; 8 mg for 7 days, 2 hours after intake",no spermatozoa
same,semen analysis after switch to placebo,"[7]; Day 8 to 15 placebo, from day 2 of placebo",normal semen analysis
same,unintended pregnancy,"[7]; on demand 8 mg prior to intercourse, 6 months",no unintended pregnancy
same,rate of discomfort upon ejaculation,[8],100%
same,solubility in acetic acid,[9],very soluble
same,solubility in alcohol,[9],freely soluble
same,solubility in water,[9],very slightly soluble
same,"uroselectivity compared with other alpha-1 blockers, such as tamsulosin and naftopidil",[10],greater
same,median Tmax,[11]; CDER NDA 22-206,about 2 hours
same,food effect on Cmax,[11]; [15],lower
same,food effect on Tmax,[11]; [15],delayed
CC(COc1ccccc1)N(CCCl)Cc1ccccc1 (centres unmarked) [phenoxybenzamine],effect following male orgasm,[12]; doses up to 20 mg/day,aspermia
same,reversal of ejaculation block with cessation of treatment,[12]; in vivo,fully reversed
"CCOc1ccccc1OCCN[C@H](C)Cc1ccc(OC)c(S(N)(=O)=O)c1 [tamsulosin, (−)-(R)-5-[2-[[2-(o-Ethoxyphenoxy)ethyl]amino]propyl]-2-methoxybenzenesulfonamide, monohydrochloride]",ejaculation,[13]; 0.8-mg dose,An ejaculation was reached
same,functional sperm count,[13]; in vivo,significantly reduced
same,side effects including discomfort on ejaculation,[13]; in vivo,reported by some subjects
same,volume of semen,"[13]; single dose of 0.4 or 0.8 mg, 4 to 6 hours after dosing",dose dependent decrease
